According to US7465736B2, “Azole methylidene cyanide derivatives and their use as protein kinase modulators” (Laboratoires Serono S.A., priority 2002, dated 2008):
pIC50: −log10 of the molar value.

Assays:
rat JNK3 = rat JNK3 (Rattus norvegicus, UniProt P49187); assay: JNK3 in vitro assay (33P incorporation into biotinylated GST-c-Jun, SPA beads); format: biochemical; conditions: in vitro potency on rat JNK3
Experimental: The compounds of the present invention are inhibitors of JNKs. The phosphorylation of c-jun by JNK2 or JNK3 may be determined by monitoring the incorporation of ^33P into c-jun following the protocol below. The inhibitory activity of the compounds according to formula I, towards c-jun phosphorylation through JNK, is determined by calculating phosphorylation activity in the presence or absence of compounds according to formula I.
JNK3 and/or -2 assays are performed in 96 well MTT plates: incubation of 0.5 μg of recombinant, pre-activated GST-JNK3 or GST-JNK2 with 1 μg of recombinant, biotinylated GST-c-Jun and 2 μM ^33γ-ATP (2 nCi/μl), in the presence or absence of compounds according to formula I and in a reaction volume of 50 μl containing 50 mM Tris-HCl, pH 8.0; 10 mM MgCl2; 1 mM Dithiothreitol, and 100 μM NaVO4. The test compound according to formula I is used in concentrations of 10, 3, 033, 0.1, 0.033, 0.01, 0.0033, 0.001 μM. The incubation is performed for 120 min. at R.T and stopped upon addition of 200 μl of a solution containing 250 μg of Streptavidine-coated SPA beads (Amersham, Inc.)*, 5 mM EDTA, 0.1% Triton X-100 and 50 μM ATP, in phosphate saline buffer.
After incubation for 60 minutes at RT, beads are sedimented by centrifugation at 1500×g for 5 minutes, resuspended in 200 μl of PBS containing 5 mM EDTA, 0.1% Triton X-100 and 50 μM ATP and the radioactivity measured in a scintillation β counter, following sedimentation of the beads as described above.

human GSK3 β = human GSK3 β (Homo sapiens, UniProt P49841); assay: GSK3β in vitro assay (33P incorporation into phospho GS2 peptide, scintillation counting); format: biochemical; conditions: in vitro potency on human GSK3 β
Sequence of human GSK3 β (P49841 whole entry): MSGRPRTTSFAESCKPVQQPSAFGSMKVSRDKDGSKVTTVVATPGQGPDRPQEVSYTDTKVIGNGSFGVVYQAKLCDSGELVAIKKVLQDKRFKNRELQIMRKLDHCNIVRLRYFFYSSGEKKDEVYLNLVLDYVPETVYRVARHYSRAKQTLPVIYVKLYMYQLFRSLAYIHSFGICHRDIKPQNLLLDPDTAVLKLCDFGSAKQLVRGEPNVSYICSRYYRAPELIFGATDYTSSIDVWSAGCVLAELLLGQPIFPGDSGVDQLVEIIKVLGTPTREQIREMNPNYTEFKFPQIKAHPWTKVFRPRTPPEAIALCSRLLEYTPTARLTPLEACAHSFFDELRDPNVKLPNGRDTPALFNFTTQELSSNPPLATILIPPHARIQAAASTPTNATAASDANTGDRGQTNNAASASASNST
Experimental: GSK3β Assay (see Naerum et al., Bioorg. Med. Chem. Lett 12 p. 1525-1528 (2002))
In a final reaction volume of 25 μl, the protein kinase GSK3β (h) (5-10 mU) is incubated with 8 mM MOPS at a pH of 7.0, in 0.2 mM EDTA, as well as 20 μM of the peptide […](p)EDEEE (SEQ ID NO: 1; a phosphor GS2 peptide being the GSK3 substrate in this assay), 10 mM Mg Acetate and [γ-^33P-ATP] (Specific activity approx. 500 cpm/pmol, concentration as required). The reaction is initiated by the addition of Mg^2+[γ-^33P-ATP]. The test compound according to formula I is used in concentrations of 100, 25, 5, 1.25, 0.315, 0.078, 0.0195, 0.0049, 0.0012, 0.00031 μM. After incubations for 40 minutes at room temperature, the reaction is stopped by the addition of 5 μl of a 3% phosphoric acid solution. 10 μl of the reaction is then spotted onto a P30 filtermat and washed three times for 5 minutes in 50 mM phosphoric acid and once in methanol prior to drying and the degree of phosphorylation of the substrate is determined by scintillation counting.

Sequence of rat JNK3 (P49187 whole entry): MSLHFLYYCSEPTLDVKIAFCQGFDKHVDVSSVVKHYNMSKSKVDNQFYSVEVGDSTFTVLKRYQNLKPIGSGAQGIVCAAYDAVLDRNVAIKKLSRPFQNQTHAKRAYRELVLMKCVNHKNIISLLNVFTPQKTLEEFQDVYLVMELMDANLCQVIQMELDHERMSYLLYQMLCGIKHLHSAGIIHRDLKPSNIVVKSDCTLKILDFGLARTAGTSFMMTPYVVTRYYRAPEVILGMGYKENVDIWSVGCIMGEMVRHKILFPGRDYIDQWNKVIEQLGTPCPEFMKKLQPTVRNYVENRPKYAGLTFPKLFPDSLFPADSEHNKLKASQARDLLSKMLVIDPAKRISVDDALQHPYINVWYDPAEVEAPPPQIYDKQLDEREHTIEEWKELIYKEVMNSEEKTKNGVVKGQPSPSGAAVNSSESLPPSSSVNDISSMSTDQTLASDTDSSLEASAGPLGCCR

| SMILES | pIC50 (rat JNK3) | IC50 (human GSK3 β) [µM] |
| --- | --- | --- |
| N#C/C(=C1\NC(c2ccccc2)=CS1)c1ccnc(NCCNc2ccc(C#N)cn2)n1 [6-{[2-({4-[cyano(4-phenyl-1,3-thiazol-2(3H)-ylidene)methyl]pyrimidin-2-yl}amino)ethyl]amino}nicotinonitrile] | > 5.00 |  |
| CC1=CS/C(=C(/C#N)c2cc(N(C)c3ccccc3)nc(NCCc3cccnc3)n2)N1 [{6-[methyl(phenyl)amino]-2-[(2-pyridin-3-ylethyl)amino]pyrimidin-4-yl}(4-methyl-1,3-thiazol-2(3H)-ylidene)acetonitrile] |  | < 10 |
| CC1=CS/C(=C(/C#N)c2ccnc(N3CCC(Nc4ncccn4)CC3)n2)N1 [(4-methyl-1,3-thiazol-2(3H)-ylidene){2-[4-(pyrimidin-2-ylamino)piperidin-1-yl]pyrimidin-4-yl}acetonitrile] |  | < 10 |
| N#C/C(=C1\NC(C(=O)O)=CS1)c1ccnc(NCCCN2CCCC2=O)n1 [2-[cyano(2-{[3-(2-oxopyrrolidin-1-yl)propyl]amino}pyrimidin-4-yl)methylene]-2,3-dihydro-1,3-thiazole-4-carboxylic acid] | > 5.00 | < 10 |
| CCC1=CS/C(=C(/C#N)c2ccnc(NC3CCN(S(C)(=O)=O)CC3)n2)N1 | > 5.00 |  |
| N#C/C(=C1\NC(c2ccccc2Cl)=CS1)c1ccnc(NC2CC2)n1 [[4-(2-chlorophenyl)-1,3-thiazol-2(3H)-ylidene][2-(cyclopropylamino)pyrimidin-4-yl]acetonitrile] |  | < 10 |

Continued, values first:

| pIC50 (rat JNK3) | IC50 (human GSK3 β) [µM] | SMILES |
| --- | --- | --- |
| > 5.00 | < 10 | CCC1=CS/C(=C(/C#N)c2ccnc(NCCc3ccc(S(N)(=O)=O)cc3)n2)N1 [4-[2-({4-[cyano(4-ethyl-1,3-thiazol-2(3H)-ylidene)methyl]pyrimidin-2-yl}amino)ethyl]benzenesulfonamide] |
|  | < 10 | CN(C)c1nc(/C(C#N)=C2/NC(c3ccccc3)=CS2)nc(N2CCCC3CCCCC32)n1 (centres unmarked) [[4-(dimethylamino)-6-(octahydroquinolin-1(2H)-yl)-1,3,5-triazin-2-yl](4-phenyl-1,3-thiazol-2(3H)-ylidene)acetonitrile] |
|  | < 10 | CC1=CS/C(=C(/C#N)c2cc(NCc3ccco3)ncn2)N1 [{6-[(2-furylmethyl)amino]pyrimidin-4-yl}(4-methyl-1,3-thiazol-2(3H)-ylidene)acetonitrile] |
